Format: physicochemical
Settings: for Head-space: headspace above about 2E+06 ng/mL solution in isopropyl myristate (IPM); for Head-space / Air/IPM partition coef: 30° C., average of three replicates; for Air/IPM partition coef: in isopropyl myristate (IPM)
Procedure: Perfume headspace data is collected for various materials according to the method provided below.
The partition coefficients are calculated by determining the amount of PRM in the headspace above a solution with a known concentration using a GC/FID-MS (Agilent 7890 and 5977A MSD) with a thermal desorption unit (Gerstel MPS2) and Dynamic Headspace Sampler (Gerstel DHS). This technique allows for automated headspace collections using the MultiPurposeSampler (MPS). The PRMs of interest are prepared at a known concentration in isopropyl myristate (IPM) or propylene glycol monomethyl ether (DPM), and 1 mL is pipetted in a 20 mL headspace vial.
DHS Conditions: The sample is tempered in the unit at 30° C. A helium stream at 10 mls/min purges 20 mL of headspace containing the analytes above the sample onto the sorbent tube (TDU) containing 25 mg of TenaxTA 35/60 (Restek cat #25701).
TDU conditions: The sorbent tube is desorbed with a program starting at 30° C. solvent vent for 2 min then ramped at 720° C./min to 270° C. and held for 8 min. The analytes are refocused on a glass bead liner at −60° C. then desorbed at a rate of 12° C./s to 270° C. onto the GC column.
GC/MS conditions: Agilent 122-5532 UI column of 30 m×250 μm×0.25 μm and a flow rate of 1.5 mL/min is utilized. A temperature program of 50° C. to 280° C. with a 2 min hold and a ramp rate of 12° C./min is suitable. Scan or SIM mode MSD parameters with a solvent delay for the DPM are applied to achieve appropriate detection.
Analytical standards can be obtained from AK Scientific, Inc., Union City, CA 94587, USA. A stock solution is prepared at approximately 0.5 g/L. The stock solution is then diluted to 4 to 5 concentrations ranging from approximately 0.05 g/L to 0.00005 g/L. These standard solutions are then analyzed by GC/MS. This analysis is performed by using the same TDU desorption and GC/MS conditions described above with a 1 μL liquid injection onto the TDU tube instead of the DHS collection. The amount injected on column and the area responses of the target m/z are utilized to create a calibration plot with a linear fit.
Quantification of the headspace is performed by the PRM target m/z area response of the perfume component and the linear equation of the calibration plot.
Perfume headspace data is collected for various materials according to the Headspace Method provided above in the Test Methods section. The Air/Solvent partition coefficients are determined and indexed accordingly (e.g., where the partition coefficient for OTNE is set at 1.00).
Results for 2-adamantyl propanoate, 2-adamantyl acetate, and 2-methyl-2-adamantyl acetate in isopropyl myristate (IPM) are provided below in Table 1.

Compound	OTNE Indexed Air/IPM partition coefficient	Head-space	Air/IPM partition coef
CC(=O)C1(C)CC2=C(CCCC2(C)C)CC1C (stereo not drawn) [OTNE, 1-(1,2,3,4,5,6,7,8-Octahydro-2,3,8,8-tetramethyl-2-naphthalenyl) ethanone, reference compound]	1.00	0.0216 ng/mL	1.04E−08 ng/mL in air per ng/mL in IPM
CC(=O)OC1C2CC3CC(C2)CC1C3 (stereo not drawn) [2-adamantyl acetate]	8.30	0.1793 ng/mL	8.66E−08 ng/mL in air per ng/mL in IPM
CC(=O)OC1(C)C2CC3CC(C2)CC1C3 (stereo not drawn) [2-methyl-2-adamantyl acetate]	8.67	0.1874 ng/mL	9.05E−08 ng/mL in air per ng/mL in IPM
CCC(=O)OC1C2CC3CC(C2)CC1C3 (stereo not drawn) [2-adamantyl propanoate]	5.47	0.1182 ng/mL	5.71E−08 ng/mL in air per ng/mL in IPM
